# From patent publication US20240199587A1, “HETEROCYCLIC COMPOUNDS” (Hoffmann-La Roche Inc., priority 2021, published 2024)
# pIC50: −log10 of the molar value.
# Target: T1, MAGL (Homo sapiens, UniProt Q99685)
# T1 sequence (Q99685 1-303): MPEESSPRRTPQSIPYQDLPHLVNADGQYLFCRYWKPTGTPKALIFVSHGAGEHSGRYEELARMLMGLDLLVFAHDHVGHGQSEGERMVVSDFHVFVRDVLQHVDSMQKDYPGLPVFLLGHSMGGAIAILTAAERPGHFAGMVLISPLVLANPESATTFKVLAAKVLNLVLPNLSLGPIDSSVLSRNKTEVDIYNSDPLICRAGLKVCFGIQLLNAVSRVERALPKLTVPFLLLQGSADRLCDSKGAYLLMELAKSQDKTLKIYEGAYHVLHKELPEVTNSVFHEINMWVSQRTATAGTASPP
# Assay: 2-AG assay (MAGL inhibitory activity, hydrolysis of 2-arachidonoylglycerol to arachidonic acid followed by mass spectrometry)
# Format: biochemical
# Details: 8 μM 2-arachidonoylglycerol, 15 min pre-incubation, 30 min incubation at RT, RapidFire MS readout
# Source text: Compounds of formula (I) were profiled for MAGL inhibitory activity by determining the enzymatic activity by following the hydrolysis of the natural substrate 2-arachidonoylglycerol (2-AG) resulting in arachidonic acid, which can be followed by mass spectrometry. This assay is hereinafter abbreviated “2-AG assay”.
# Compounds of formula (I) were profiled for MAGL inhibitory activity by determining the enzymatic activity by following the hydrolysis of the natural substrate 2-arachidonoylglycerol (2-AG) resulting in arachidonic acid, which can be followed by mass spectrometry. This assay is hereinafter abbreviated “2-AG assay”. The 2-AG assay was carried out in 384 well polypropylene assay plates. […] Compound dilutions were added to MAGL protein in assay buffer (50 mM TRIS, 1 mM EDTA, 0.01% (v/v) Tween-20, 2.5% (v/v) DMSO). After shaking, the plate was incubated for 15 min at RT. To start the reaction, 2-arachidonoylglycerol in assay buffer was added. The final concentrations in the assay was […] for MAGL protein and 8 μM 2-arachidonoylglyerol. After shaking and 30 min incubation at RT, the reaction was quenched by the addition of two assay volumes of acetonitrile containing 4 μM of d8-arachidonic acid. The amount of arachidonic acid formed was traced by an online SPE system (Agilent Rapidfire) coupled to a triple quadrupole mass spectrometer. A C18 SPE cartridge (Agilent G9205A) was used in an acetonitrile/water liquid setup. The mass spectrometer was operated in negative electrospray mode following the mass transitions 303.1→259.1 for arachidonic acid and 311.1→267.0 for d8-arachidonic acid. The activity of the compounds was calculated based on the ratio of intensities [arachidonic acid/d8-arachidonic acid].
row,Compound,pIC50
1,"O=C(N1CC(c2ccc(C3(N4CCOCC4)CC3)cc2)C1)N1CC2(CC(n3cnc(C4CC4)n3)C2)C1 [Example 34, [6-(3-cyclopropyl-1,2,4-triazol-1-yl)-2-azaspiro[3.3]heptan-2-yl]-[3-[4-(1-morpholinocyclopro-pyl)phenyl]azetidin-1-yl]methanone]",8.24
2,CC(F)(F)c1ccc(C2CN(C(=O)N3CC4(CC(n5cnc(C6CC6)n5)C4)C3)C2)cc1 [Example 35],7.70
3,"O=C(N1CC(c2ccc(OC(F)(F)F)c(F)c2)C1)N1CC2(CC(n3cnc(C4CC4)n3)C2)C1 [Example 36, [6-(3-cyclopropyl-1,2,4-triazol-1-yl)-2-azaspiro[3.3]heptan-2-yl]-[3-[3-fluoro-4-(trifluoromethoxy)phenyl]azetidin-1-yl]methanone]",9.40
4,"O=C(N1CC(c2ccc(CC(F)(F)F)cc2)C1)N1CC2(CC(n3cnc(C4CC4)n3)C2)C1 [Example 37, [6-(3-cyclopropyl-1,2,4-triazol-1-yl)-2-azaspiro[3.3]heptan-2-yl]-[3-[4-(2,2,2-trifluoroethyl)phenyl]azetidin-1-yl]methanone]",7.61
5,"O=C(N1CC(c2ccc(C3CC3)cc2F)C1)N1CC2(CC(n3cnc(C4CC4)n3)C2)C1 [Example 38, [3-(4-cyclopropyl-2-fluoro-phenyl)azetidin-1-yl]-[6-(3-cyclopropyl-1,2,4-triazol-1-yl)-2-azaspiro[3.3]heptan-2-yl]methanone]",9.22
6,"N#Cc1cc(C2CN(C(=O)N3CC4(CC(n5cnc(C6CC6)n5)C4)C3)C2)ccc1OC(F)(F)F [Example 39, 5-[1-[6-(3-cyclopropyl-1,2,4-triazol-1-yl)-2-azaspiro[3.3]heptane-2-carbonyl]azetidin-3-yl]-2-(trifluoromethoxy) benzonitrile]",8.62
7,"COc1cc(C(F)(F)F)ccc1CC1CC2(C1)CN(C(=O)N1CC3(CC(n4cnc(C5CC5)n4)C3)C1)C2 [Example 40, [6-(3-cyclopropyl-1,2,4-triazol-1-yl)-2-azaspiro[3.3]heptan-2-yl]−[6-[[2-methoxy-4-(trifluoromethyl)phenyl]methyl]-2-azaspiro[3.3]heptan-2-yl]methanone]",10.52
8,"O=C(N1CC2(CC(Cc3ccc(F)cc3F)C2)C1)N1CC2(CC(n3cnc(C4CC4)n3)C2)C1 [Example 41, [6-(3-cyclopropyl-1,2,4-triazol-1-yl)-2-azaspiro[3.3]heptan-2-yl]-[6-[(2,4-difluorophenyl)methyl]-2-azaspiro[3.3]heptan-2-yl]methanone]",10.40
9,"O=C(N1CC2(CC(Oc3ccc(OC(F)(F)F)cc3F)C2)C1)N1CC2(CC(n3cnc(C4CC4)n3)C2)C1 [Example 42, [6-(3-cyclopropyl-1,2,4-triazol-1-yl)-2-azaspiro[3.3]heptan-2-yl]−[6-[2-fluoro-4-(trifluoromethoxy)phenoxy]-2-azaspiro[3.3]heptan-2-yl]methanone]",10.00
10,"O=C(N1CC2(CC(Oc3ccc(C(F)(F)F)cc3)C2)C1)N1CC2(CC(n3cnc(C4CC4)n3)C2)C1 [Example 43, [6-(3-cyclopropyl-1,2,4-triazol-1-yl)-2-azaspiro[3.3]heptan-2-yl]-[6-[4-(trifluoromethyl)phenoxy]-2-azaspiro[3.3]heptan-2-yl]methanone]",10.00
11,"CC(C)(C)c1ccc(C2CN(C(=O)N3CC4(CC(n5cnc(C6CC6)n5)C4)C3)C2)cc1 [Example 44, [3-(4-tert-butylphenyl)azetidin-1-yl]-[6-(3-cyclopropyl-1,2,4-triazol-1-yl)-2-azaspiro[3.3]heptan-2-yl]methanone]",9.70
12,"O=C(N1CC2(CC(Oc3ccc(F)cc3Cl)C2)C1)N1CC2(CC(n3cnc(C4CC4)n3)C2)C1 [Example 45, [6-(2-chloro-4-fluoro-phenoxy)-2-azaspiro[3.3]heptan-2-yl]-[6-(3-cyclopropyl-1,2,4-triazol-1-yl)-2-azaspiro[3.3]heptan-2-yl]methanone]",9.70
